Patent publication US10912771B1, “Methods for the administration of certain VMAT2 inhibitors” (Neurocrine Biosciences, Inc., priority 2017, dated 2021)
Entries after “also recorded” stand apart in the source; their conditions may differ. Read-outs that look alike come from different tables or passages of the source.

Tests used:
Serotonin 5-HT7 = Serotonin 5-HT7 (Homo sapiens, UniProt P34969); assay: Cerep screen, Serotonin 5-HT7; details: 1 or 10 μM final concentration; n=2
[1] = Phase 1 open-label one-sequence crossover drug-interaction study: plasma pharmacokinetics of NBI-98854 and metabolites with and without rifampin; assay type: in vivo, human; details: for half-life: read-out: Mean t1/2 (converted)
Protocol: (§1) Subjects received a single dose of 80 mg valbenazine tosylate on Days 1 and 11 between 0800 and 1000 hours. In addition, subjects received 600 mg rifampin (300 mg×2 capsules) once daily on Days 5 (after collection of the 96-hour PK sample) through 14 between 0830 and 1030 hours. Subjects were required to fast overnight before receiving the study drugs (valbenazine tosylate and rifampin). Subjects were discharged from the study center on Day 15 (final study day or upon early termination) after all safety evaluations and study assessments had been completed.
Safety was assessed throughout the study.
NBI-98854 40 mg capsules were administered orally. The dose of NBI-98854 was based on ditosylate salt (dose expressed as free base). Subjects received a single dose of NBI-98854 80 mg (as two 40 mg capsules) twice during the study, on Days 1 and 11.
Rifampin 300 mg capsules were administered orally. Subjects received a single dose of rifampin 600 mg (as two 300 mg capsules) on Days 5 (after collection of the 96 hour NBI-98854 PK sample) through 14 between 0830 and 1030 hours.
The following plasma PK parameters were calculated only for NBI-98854: • Apparent systemic clearance after oral administration (CL/F) • Apparent volume of distribution during the terminal phase after oral administration (Vz/F)
The last significant figure was rounded up if the digit to the right of it was >5, and was rounded down if the digit to the right of it was […].
The last significant figure was rounded up if the digit to the right of it was ≥5, and was rounded down if the digit to the right of it was ≤4.
(§2) An analysis of variance (ANOVA) model was used to compare AUC0-∞ and Cmax for NBI-98854 administered with rifampin (“test”) versus AUC0-∞ and Cmax for NBI-98854 alone (“reference”). The PK parameters for metabolites of NBI-98854 and rifampin were also evaluated. Safety data were summarized using descriptive statistics.

Serotonin 5-HT1A = molecular target: T1, Serotonin 5-HT1A (Homo sapiens, UniProt P08908); assay: Cerep screen, Serotonin 5-HT1A; details: 1 or 10 μM final concentration; n=2
T1 sequence (P08908 1-422): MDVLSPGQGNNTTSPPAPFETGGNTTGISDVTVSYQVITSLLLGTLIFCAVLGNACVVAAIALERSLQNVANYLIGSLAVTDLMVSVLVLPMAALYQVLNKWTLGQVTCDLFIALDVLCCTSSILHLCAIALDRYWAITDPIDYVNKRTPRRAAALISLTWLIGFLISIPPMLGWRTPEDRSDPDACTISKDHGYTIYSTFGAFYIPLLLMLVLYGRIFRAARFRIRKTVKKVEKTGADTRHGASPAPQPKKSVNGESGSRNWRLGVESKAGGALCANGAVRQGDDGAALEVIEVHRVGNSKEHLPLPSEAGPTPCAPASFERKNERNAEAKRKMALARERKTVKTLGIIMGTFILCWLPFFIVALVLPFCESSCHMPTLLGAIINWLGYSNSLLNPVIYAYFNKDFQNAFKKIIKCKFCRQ

VMAT2 = molecular target: T2, VMAT2 (Homo sapiens, UniProt Q05940); assay: Inhibition of [3H]-DHTBZ binding to human platelets
T2 construct: from tissue; host or cells: human platelets (homogenates)
T2 sequence (Q05940 whole entry): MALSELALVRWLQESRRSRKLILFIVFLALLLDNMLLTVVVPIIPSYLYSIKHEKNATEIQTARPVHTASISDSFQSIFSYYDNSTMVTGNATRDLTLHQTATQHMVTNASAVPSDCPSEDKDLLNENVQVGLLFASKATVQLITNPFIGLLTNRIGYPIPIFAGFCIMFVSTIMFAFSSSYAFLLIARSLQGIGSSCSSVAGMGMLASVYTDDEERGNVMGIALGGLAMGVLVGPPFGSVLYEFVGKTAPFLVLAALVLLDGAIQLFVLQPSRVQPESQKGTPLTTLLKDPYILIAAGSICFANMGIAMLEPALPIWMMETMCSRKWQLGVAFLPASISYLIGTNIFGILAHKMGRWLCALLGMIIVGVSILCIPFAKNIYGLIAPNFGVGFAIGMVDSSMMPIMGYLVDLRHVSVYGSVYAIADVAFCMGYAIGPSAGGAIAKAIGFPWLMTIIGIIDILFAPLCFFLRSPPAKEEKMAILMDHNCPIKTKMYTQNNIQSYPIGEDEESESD

[2] = test system: more than 80 targets (GPCRs, cell-surface monoamine transporters, ion channels including HERG); assay: Cerep multi-target activity screen; details: receptors, monoamine transporters, and ion channels
[3] = Phase 1 drug-interaction study: safety, treatment-emergent adverse events; assay type: in vivo, human
Protocol: as §1, §2

[4] = Ptosis, in vivo surrogate measure of pharmacological effect
CYP enzymes = details: human
human VMAT1 transporter = molecular target: T3, human VMAT1 transporter (Homo sapiens, UniProt P54219); assay: Uptake in cells expressing VMAT1; assay type: cell-based; details: TBZ, VBZ and metabolites at concentrations up to 10 μM
T3 construct: expressed in transfected cells
T3 sequence (P54219 1-525): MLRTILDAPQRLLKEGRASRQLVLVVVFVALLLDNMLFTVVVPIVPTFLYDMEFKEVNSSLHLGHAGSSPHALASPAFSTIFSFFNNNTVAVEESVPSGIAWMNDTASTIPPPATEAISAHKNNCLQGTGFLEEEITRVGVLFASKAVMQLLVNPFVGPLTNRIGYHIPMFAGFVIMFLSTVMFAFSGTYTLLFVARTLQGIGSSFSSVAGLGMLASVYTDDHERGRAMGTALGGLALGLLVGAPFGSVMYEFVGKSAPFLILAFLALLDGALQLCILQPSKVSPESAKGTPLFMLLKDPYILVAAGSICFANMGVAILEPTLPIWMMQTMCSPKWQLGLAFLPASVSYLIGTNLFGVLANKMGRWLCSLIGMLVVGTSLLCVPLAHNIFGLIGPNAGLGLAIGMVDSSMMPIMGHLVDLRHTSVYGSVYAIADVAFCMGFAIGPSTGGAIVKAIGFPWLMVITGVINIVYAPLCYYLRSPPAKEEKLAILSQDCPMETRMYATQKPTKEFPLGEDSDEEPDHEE

Dopamine D2(s) = Dopamine D2(s) (Homo sapiens, UniProt P14416); assay: Cerep screen, Dopamine D2(s); details: radioligand binding assays and broad panel screen
Chain of Dopamine D2(s) (P14416 1-414 isoform P14416-2): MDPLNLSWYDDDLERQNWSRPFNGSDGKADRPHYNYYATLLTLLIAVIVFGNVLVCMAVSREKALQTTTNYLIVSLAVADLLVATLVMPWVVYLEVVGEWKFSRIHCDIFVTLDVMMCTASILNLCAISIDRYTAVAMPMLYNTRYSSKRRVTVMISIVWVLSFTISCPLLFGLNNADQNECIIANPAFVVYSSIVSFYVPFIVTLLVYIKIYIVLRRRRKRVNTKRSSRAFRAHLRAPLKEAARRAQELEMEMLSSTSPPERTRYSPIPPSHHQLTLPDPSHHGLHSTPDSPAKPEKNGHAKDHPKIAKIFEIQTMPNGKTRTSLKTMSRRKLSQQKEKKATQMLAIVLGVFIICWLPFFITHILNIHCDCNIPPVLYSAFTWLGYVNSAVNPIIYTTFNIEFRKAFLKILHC

Dopamine D1 = Dopamine D1 (Homo sapiens, UniProt P21728); assay: Cerep screen, Dopamine D1; details: radioligand binding assays and broad panel screen
Chain of Dopamine D1 (P21728 whole entry): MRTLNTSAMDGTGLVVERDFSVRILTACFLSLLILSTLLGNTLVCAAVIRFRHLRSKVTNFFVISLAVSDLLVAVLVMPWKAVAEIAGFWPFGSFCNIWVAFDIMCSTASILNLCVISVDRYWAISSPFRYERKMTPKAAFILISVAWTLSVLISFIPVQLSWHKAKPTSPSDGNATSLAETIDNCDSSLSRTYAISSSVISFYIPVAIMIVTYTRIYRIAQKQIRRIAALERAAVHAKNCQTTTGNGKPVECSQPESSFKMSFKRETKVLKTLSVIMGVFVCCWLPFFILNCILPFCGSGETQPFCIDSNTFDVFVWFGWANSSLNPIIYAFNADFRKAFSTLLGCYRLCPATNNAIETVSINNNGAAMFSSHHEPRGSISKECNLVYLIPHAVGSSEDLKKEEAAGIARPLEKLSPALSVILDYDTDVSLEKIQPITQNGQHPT

[5] = Prolactin release, in vivo surrogate for dopaminergic modulation
[6] = both sexes, human, oral, 80 mg, plasma analyte, NBI-98854 alone
[7] = both sexes, human, oral, plasma NBI-98854, NBI-98854 80 mg + rifampin 600 mg, N = 11, Mean (SD)
[8] = both sexes, human, oral, plasma NBI-98854, NBI-98854 80 mg alone, N = 11, Mean (SD)
[9] = both sexes, human, oral, plasma analyte, NBI-98854 administered with rifampin
[10] = plasma analyte, NBI-98854 plus rifampin compared with NBI-98854 alone
[11] = Safety Analysis Set, healthy subjects, by treatment period
[12] = both sexes, human, plasma, oral, 80 mg
[13] = plasma metabolite NBI-98782, NBI-98854 80 mg + rifampin 600 mg, N = 11, Mean (SD)
[14] = plasma metabolite NBI-98782, NBI-98854 80 mg alone, N = 11, Mean (SD)

Chain of Serotonin 5-HT7 (P34969 whole entry): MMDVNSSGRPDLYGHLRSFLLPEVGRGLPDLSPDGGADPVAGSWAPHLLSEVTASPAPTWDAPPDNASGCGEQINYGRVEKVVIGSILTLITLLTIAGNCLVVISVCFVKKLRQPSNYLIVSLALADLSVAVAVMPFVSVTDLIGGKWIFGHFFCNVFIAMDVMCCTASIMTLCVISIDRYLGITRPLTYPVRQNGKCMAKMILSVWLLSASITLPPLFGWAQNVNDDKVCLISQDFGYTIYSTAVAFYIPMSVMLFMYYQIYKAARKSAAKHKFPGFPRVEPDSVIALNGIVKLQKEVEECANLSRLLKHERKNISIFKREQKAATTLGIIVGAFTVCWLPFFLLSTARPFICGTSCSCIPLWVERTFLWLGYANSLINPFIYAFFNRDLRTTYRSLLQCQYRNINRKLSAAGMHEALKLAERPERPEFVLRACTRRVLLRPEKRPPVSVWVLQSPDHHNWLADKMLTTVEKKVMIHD

## COc1cc2c(cc1OC)[C@H]1C[C@@H](OC(=O)[C@@H](N)C(C)C)[C@H](CC(C)C)CN1CC2 [NBI-98854, (S)-2-amino-3-methyl-butyric acid (2R, 3R,11bR)-3-isobutyl-9,10-dimethoxy-1,3,4,6,7,11b-hexahydro-2H-pyrido[2,1-a]isoquinolin-2-yl ester]
Serotonin 5-HT7
  percent of control specific binding, Serotonin 5-HT7: 4%
[1]; NBI-98854 80 mg + rifampin 600 mg, N = 11, Mean (SD)
  CL/F: 50.3 (11.4) L/hr
[1]; NBI-98854 80 mg alone, N = 11, Mean (SD)
  CL/F: 13.8 (2.77) L/hr
[1]; [6]
  half-life: 16 h
[1]; [7]
  AUC(0-inf): 1700 ng·h/mL
  Cmax: 542 ng/mL
  MRT: 8.7 h
[1]; both sexes, human, oral, plasma NBI-98854, NBI-98854 80 mg + rifampin 600 mg, N = 11, Median (mm, max), read-out: tmax
  Tmax: 0.75 h
[1]; [8]
  AUC(0-inf): 6020 ng·h/mL
  Cmax: 795 ng/mL
  MRT: 17 h
[1]; both sexes, human, oral, plasma NBI-98854, NBI-98854 80 mg alone, N = 11, Median (mm, max), read-out: tmax
  Tmax: 0.75 h
[1]; [9]
  half-life: 10 h
[1]; both sexes, human, plasma, oral, 80 mg, plasma NBI-98854, NBI-98854 80 mg alone, N = 11, Mean (SD), read-out: AUC0-24
  AUC(0-t): 4480 ng·h/mL
[1]; both sexes, human, plasma, oral, 80 mg, plasma NBI-98854, NBI-98854 80 mg alone, N = 11, Mean (SD), read-out: AUC0-tlast
  AUC(0-t): 5930 ng·h/mL
[1]; both sexes, human, plasma, oral, plasma NBI-98854, NBI-98854 80 mg + rifampin 600 mg, N = 11, Mean (SD), read-out: AUC0-24
  AUC(0-t): 1510 ng·h/mL
[1]; both sexes, human, plasma, oral, plasma NBI-98854, NBI-98854 80 mg + rifampin 600 mg, N = 11, Mean (SD), read-out: AUC0-tlast
  AUC(0-t): 1670 ng·h/mL
[1]; plasma NBI-98854, NBI-98854 80 mg + rifampin 600 mg, N = 11, Mean (SD)
  t1/2: 10 (2.1) hours
[1]; plasma NBI-98854, NBI-98854 80 mg alone, N = 11, Mean (SD)
  t1/2: 16 (2.3) hours
[1]; [10]
  decrease in AUC0-∞: ~70%
  decrease in Cmax: ~30%
Serotonin 5-HT1A
  percent of control specific binding, Serotonin 5-HT1A: 26%
VMAT2
  Affinity Relative to R,R,R-DHTBZ: 45
VMAT2; n=4
  pKi mean (SEM): 6.82 (0.02)
[2]
  affinity for more than 80 binding sites: little to no affinity
[3]; 80 mg in healthy subjects, alone or concomitantly with rifampin
  Tolerability: well tolerated
[3]; [11]
  Subjects who experienced a TEAE: Overall: 6 (50.0) n (%)
  TEAE: Abdominal pain: 1 (8.3) n (%)
  TEAE: Abdominal pain upper: 0 n (%)
  TEAE: Arthropod bite: 1 (8.3) n (%)
  TEAE: Chromaturia: 0 n (%)
  TEAE: Headache: 3 (25.0) n (%)
  TEAE: Hypoaesthesia: 0 n (%)
  TEAE: Non-cardiac chest pain: 0 n (%)
  TEAE: Paraesthesia: 0 n (%)
  TEAE: Vessel puncture site haemorrhage: 1 (8.3) n (%)
[4]
  induction of ptosis: induced ptosis in an equivalent manner
CYP enzymes
  enzymes involved in oxidative metabolism: CYP3A4/5 is the major enzyme
Human VMAT1 transporter; listed as VBZ
  inhibition of uptake through VMAT1: no significant inhibitory activity; also recorded: no significant effect

## COc1cc2c(cc1OC)[C@@H]1C[C@@H](O)[C@@H](CC(C)C)CN1CC2 [R,S,S-DHTBZ]
Dopamine D2(s)
  interaction with D2 receptors: interact with D1 and D2 receptors
Dopamine D1
  interaction with D1 receptors: interact with D1 and D2 receptors

## COc1cc2c(cc1OC)[C@H]1C[C@@H](O)[C@H](CC(C)C)CN1CC2 [NBI-98782, (2R, 3R,11bR)-3-isobutyl-9,10-dimethoxy-1,3,4,6,7,11b-hexahydro-2H-pyrido[2,1-a]isoquinolin-2-ol]
Serotonin 5-HT7
  percent of control specific binding, Serotonin 5-HT7: 3%
[1]; [6]
  half-life: 19 h
[1]; both sexes, human, oral, 80 mg, plasma analyte, NBI-98854 alone, read-out: Median tmax
  Tmax: 4 h
[1]; [9]
  half-life: 12 h
[1]; both sexes, human, oral, plasma analyte, NBI-98854 plus rifampin, read-out: Median tmax
  Tmax: 3 h
[1]; [12]
  AUC(0-inf): 689 ng·h/mL
  Cmax: 21.5 ng/mL
  MRT: 28 h
[1]; both sexes, human, plasma, oral, 80 mg, plasma metabolite NBI-98782, NBI-98854 80 mg alone, N = 11, Mean (SD), read-out: AUC0-24
  AUC(0-t): 364 ng·h/mL
[1]; both sexes, human, plasma, oral, 80 mg, plasma metabolite NBI-98782, NBI-98854 80 mg alone, N = 11, Mean (SD), read-out: AUC0-tlast
  AUC(0-t): 665 ng·h/mL
[1]; both sexes, human, plasma, oral, plasma metabolite NBI-98782, NBI-98854 80 mg + rifampin 600 mg, N = 11, Mean (SD), read-out: AUC0-24
  AUC(0-t): 115 ng·h/mL
[1]; both sexes, human, plasma, oral, plasma metabolite NBI-98782, NBI-98854 80 mg + rifampin 600 mg, N = 11, Mean (SD), read-out: AUC0-tlast
  AUC(0-t): 153 ng·h/mL
[1]; [13]
  Tlag: 0.23 (0.075) hr
  t1/2: 12 (1.7) hr
[1]; plasma metabolite NBI-98782, NBI-98854 80 mg + rifampin 600 mg, N = 11, Median (min, max)
  Tmax: 3.0 (0.50, 4.0) hr
[1]; [14]
  Tlag: 0.25 (0.16) hr
  t1/2: 19 (2.3) hr
[1]; plasma metabolite NBI-98782, NBI-98854 80 mg alone, N = 11, Median (min, max)
  Tmax: 4.0 (0.52, 18) hr
Serotonin 5-HT1A
  percent of control specific binding, Serotonin 5-HT1A: 17%
[5]
  increase in serum prolactin levels: induced a similar increase in serum prolactin levels as TBZ
[2]
  affinity for more than 80 binding sites: little to no affinity
[4]
  induction of ptosis: induced ptosis in an equivalent manner
CYP enzymes
  enzymes involved in oxidative metabolism: mediated primarily by CYP2D6 with contribution from CYP3A4/5
Human VMAT1 transporter; listed as R,R,R-DHTBZ
  inhibition of uptake through VMAT1: no significant inhibitory activity; also recorded: no significant effect

## COc1cc2c(cc1OC)[C@@H]1C[C@H](O)[C@@H](CC(C)C)CN1CC2 [S,S,S-DHTBZ]
Dopamine D2(s)
  interaction with D2 receptors: interact with D1 and D2 receptors
Dopamine D1
  interaction with D1 receptors: interact with D1 and D2 receptors
